SMILES strings stand for the structures.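 Following 48 hours of exposure in 96-well plates, responses at five concentrations were used to interpolate endpoints linearly. TGI is the concentration that stops growth completely.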 Some results are limits rather than exact numbers.

The values below come from PubChem BioAssay (NCI).

Test systems include SK-MEL-2 melanoma; OVCAR-4 ovarian; DU-145 prostate; NCI-H460 lung; T-47D breast; MCF7 breast; HCC-2998 colon; M14 melanoma; OVCAR-3 ovarian; HOP-62 NSCLC; LOX IMVI melanoma; SN12C renal.
Common to all, as to test: NCI tumour cell line growth inhibition, 48 h

With `CC1(c2ccc(Cl)cc2)CC(c2ccc(Cl)cc2)=C(C#N)C(=C(C#N)C#N)N1` (stereo not given), the TGI in the experiment with SK-MEL-2 melanoma turned out to be 63.4 µM; in the experiment on OVCAR-4 ovarian, 35.7 µM; in the experiment with DU-145 prostate it was 28.2 µM; in the experiment on NCI-H460 lung, 73.3 µM; in the experiment on T-47D breast, 40 µM; with MCF7 breast, 49.8 µM. The TGI came out at 29.5 µM in the experiment on HCC-2998 colon; 36.6 µM in the experiment on M14 melanoma; 24.3 µM in the experiment with OVCAR-3 ovarian; 25.1 µM with HOP-62 NSCLC; 33.6 µM in the experiment with LOX IMVI melanoma; 37.2 µM in the experiment on SN12C renal.
In the case of `O=C1NC2(CCCCC2)N=C2C(Cl)CCCC12Cl` (stereo not given), the TGI with SK-MEL-2 melanoma, with OVCAR-4 ovarian, in the experiment on DU-145 prostate, in the experiment with NCI-H460 lung, in the experiment with T-47D breast and in the experiment with MCF7 breast was greater than 100 µM in each case. Also, the TGI in the experiment with HCC-2998 colon, in the experiment on M14 melanoma, in the experiment with OVCAR-3 ovarian, with HOP-62 NSCLC, in the experiment on LOX IMVI melanoma and in the experiment with SN12C renal was greater than 100 µM each time.
For the molecule `O=C1C2C=CC1C1C(=O)OC(=O)C21` (stereo not given), the TGI with SK-MEL-2 melanoma, in the experiment on OVCAR-4 ovarian, in the experiment on DU-145 prostate, in the experiment on NCI-H460 lung, in the experiment with T-47D breast and in the experiment on MCF7 breast was greater than 100 µM in each case. The TGI in the experiment with HCC-2998 colon, in the experiment with M14 melanoma, in the experiment on OVCAR-3 ovarian, in the experiment with HOP-62 NSCLC, with LOX IMVI melanoma and with SN12C renal was greater than 100 µM throughout.
For `CC(C)(C)c1ccc(CN2CCN(C(c3ccccc3)c3ccc(Cl)cc3)CC2)cc1` (stereo not given), the TGI with SK-MEL-2 melanoma was greater than 100 µM; in the experiment on OVCAR-4 ovarian it was greater than 100 µM; in the experiment on DU-145 prostate it was greater than 100 µM; in the experiment on NCI-H460 lung, greater than 100 µM; with T-47D breast, 54.9 µM; in the experiment with MCF7 breast, greater than 100 µM. The TGI with HCC-2998 colon was 89.4 µM; in the experiment on M14 melanoma, greater than 100 µM; in the experiment with OVCAR-3 ovarian, greater than 100 µM; in the experiment on HOP-62 NSCLC it was greater than 100 µM; in the experiment with LOX IMVI melanoma, greater than 100 µM; in the experiment on SN12C renal it was greater than 100 µM.
`O=C1OC(c2ccc(O)c(Cl)c2)(c2ccc(O)c(Cl)c2)c2ccc(Br)c3cccc1c23` (tested in a mixture with another compound): the TGI was 42.1 µM in the experiment on SK-MEL-2 melanoma; 11.6 µM in the experiment on OVCAR-4 ovarian; 46.8 µM in the experiment with DU-145 prostate; 34.7 µM in the experiment on NCI-H460 lung; 13.3 µM in the experiment with T-47D breast; 30.6 µM in the experiment on MCF7 breast. The TGI was determined as 35 µM with HCC-2998 colon; 49.6 µM with M14 melanoma; 21.8 µM in the experiment on OVCAR-3 ovarian; 40.3 µM in the experiment on HOP-62 NSCLC; 40.3 µM in the experiment with LOX IMVI melanoma; 32 µM with SN12C renal.
